Laboratory results: ChEMBL document CHEMBL1152232, “Muscarinic acetylcholine receptor antagonists: SAR and optimization of tyrosine ureas” (Bioorg Med Chem Lett, 2008)

Key:
[1] = biological target: Muscarinic acetylcholine receptor M3 (Homo sapiens, UniProt P20309); assay: Antagonist activity at human recombinant muscarinic M3 receptor expressed in CHO cells assessed as inhibition of acetylcholine-induced intracellular Ca2+ mobilization by FLIPR assay; format: functional, cell-based; conditions: for Kb: read-out: pA2 (converted)
[2] = biological target: T1, Muscarinic acetylcholine receptor M1 (Homo sapiens, UniProt P11229); assay: Antagonist activity at human recombinant muscarinic M1 receptor expressed in CHO cells assessed as inhibition of acetylcholine-induced intracellular Ca2+ mobilization by FLIPR assay; format: functional, cell-based; conditions: for Kb: read-out: pA2 (converted)
T1 sequence (P11229 whole entry): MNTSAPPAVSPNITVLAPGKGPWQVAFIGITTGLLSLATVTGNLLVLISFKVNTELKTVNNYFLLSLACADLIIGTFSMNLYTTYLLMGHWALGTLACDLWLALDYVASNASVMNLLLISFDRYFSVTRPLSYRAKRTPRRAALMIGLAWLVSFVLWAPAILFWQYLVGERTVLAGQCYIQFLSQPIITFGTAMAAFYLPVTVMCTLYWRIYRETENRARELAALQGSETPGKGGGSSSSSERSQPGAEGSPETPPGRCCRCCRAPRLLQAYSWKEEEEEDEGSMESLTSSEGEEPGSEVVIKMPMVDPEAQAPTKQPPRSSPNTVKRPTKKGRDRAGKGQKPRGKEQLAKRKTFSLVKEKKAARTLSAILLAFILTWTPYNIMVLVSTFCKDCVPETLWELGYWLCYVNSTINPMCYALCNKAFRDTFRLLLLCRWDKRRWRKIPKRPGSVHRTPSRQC

[3] = biological target: T2, Muscarinic acetylcholine receptor M2 (Homo sapiens, UniProt P08172); assay: Antagonist activity at human recombinant muscarinic M2 receptor expressed in CHO cells coexpressing chimeric G protein Gqi5 assessed as inhibition of acetylcholine-induced intracellular Ca2+ mobilization by FLIPR assay; format: functional, cell-based; conditions: for Kb: read-out: pA2 (converted)
T2 sequence (P08172 whole entry): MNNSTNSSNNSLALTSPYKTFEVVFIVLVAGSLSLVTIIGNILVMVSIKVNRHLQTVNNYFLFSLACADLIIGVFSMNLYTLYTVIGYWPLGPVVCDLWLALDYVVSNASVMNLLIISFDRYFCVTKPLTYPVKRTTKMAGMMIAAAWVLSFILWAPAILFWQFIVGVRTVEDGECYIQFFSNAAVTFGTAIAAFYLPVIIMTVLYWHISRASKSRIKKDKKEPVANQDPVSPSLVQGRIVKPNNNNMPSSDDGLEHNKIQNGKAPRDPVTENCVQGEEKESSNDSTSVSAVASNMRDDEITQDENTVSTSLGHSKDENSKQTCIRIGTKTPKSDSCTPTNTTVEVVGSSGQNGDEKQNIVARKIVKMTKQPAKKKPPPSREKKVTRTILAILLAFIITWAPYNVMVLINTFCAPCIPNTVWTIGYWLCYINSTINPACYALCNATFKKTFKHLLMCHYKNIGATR

[4] = biological target: Muscarinic acetylcholine receptor M1 and M3 (Homo sapiens) (UniProt P20309+P11229); assay: Selectivity for human recombinant muscarinic M3 receptor over human recombinant muscarinic M1 receptor
[5] = biological target: Muscarinic acetylcholine receptors; M2 & M3 (Homo sapiens) (UniProt P20309+P08172); assay: Selectivity for human recombinant muscarinic M3 receptor over human recombinant muscarinic M2 receptor
Sequence of Muscarinic acetylcholine receptors; M2 & M3 (Homo sapiens) (P20309 whole entry, looked up, one chain of several): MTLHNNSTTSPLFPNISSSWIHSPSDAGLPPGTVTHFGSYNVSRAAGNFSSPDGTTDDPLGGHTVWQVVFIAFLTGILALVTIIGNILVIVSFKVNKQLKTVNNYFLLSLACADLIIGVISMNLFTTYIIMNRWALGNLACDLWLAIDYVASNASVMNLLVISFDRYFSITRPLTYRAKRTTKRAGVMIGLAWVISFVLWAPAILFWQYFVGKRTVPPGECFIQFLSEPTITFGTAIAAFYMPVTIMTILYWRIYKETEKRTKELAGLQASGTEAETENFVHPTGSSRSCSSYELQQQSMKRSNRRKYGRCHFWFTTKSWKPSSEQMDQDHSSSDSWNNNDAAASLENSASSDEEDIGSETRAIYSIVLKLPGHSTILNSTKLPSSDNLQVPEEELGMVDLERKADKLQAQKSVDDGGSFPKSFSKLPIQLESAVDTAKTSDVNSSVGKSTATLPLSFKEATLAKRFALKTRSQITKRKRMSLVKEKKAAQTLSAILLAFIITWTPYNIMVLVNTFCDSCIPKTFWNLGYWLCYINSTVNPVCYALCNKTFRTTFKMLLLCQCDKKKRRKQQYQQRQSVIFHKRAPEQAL

Sequence of Muscarinic acetylcholine receptor M1 and M3 (Homo sapiens) (P20309 whole entry, looked up, one chain of several): as above
Sequence of Muscarinic acetylcholine receptor M3 (P20309 whole entry): as the sequence (P20309 whole entry, looked up, one chain of several) above

Structure (SMILES)	IC50 [1]	IC50 [2]	IC50 [3]	Selectivity ratio [4]	Selectivity ratio [5]	Kb [1]	Kb [2]	Kb [3]
CCOC(=O)c1ccc(NC(=O)N[C@@H](Cc2ccc(O)cc2)C(=O)N[C@H]2CC[N+](C)(Cc3ccc(F)cc3)C2)cc1 (some centres undefined)	6.31 nM	200 nM	39.8 nM					
CCOC(=O)c1ccc(NC(=O)N[C@@H](Cc2ccc(O)cc2)C(=O)NC2CCN(CC)C2)cc1 (some centres undefined)	794 nM	> 3160 nM	2510 nM	100	10			
CCOC(=O)c1ccc(NC(=O)N[C@@H](Cc2ccccc2Cl)C(=O)N[C@H]2CC[N+](C)(Cc3ccc4c(c3)OCO4)C2)cc1 (some centres undefined)	126 nM	2000 nM	100 nM					
CCOC(=O)c1ccc(NC(=O)N[C@@H](Cc2ccc(Cl)c(Cl)c2)C(=O)N[C@H]2CC[N+](C)(Cc3ccc4c(c3)OCO4)C2)cc1 (some centres undefined)	25.1 nM	39.8 nM	12.6 nM					
CCOC(=O)c1ccc(NC(=O)N[C@@H](Cc2ccc(O)cc2)C(=O)NC2CCN(Cc3cccc(C(F)(F)F)c3)C2)cc1 (some centres undefined)	15.8 nM	> 3160 nM	631 nM	100	10			
CCOC(=O)c1ccc(NC(=O)N[C@@H](Cc2ccc(O)cc2)C(=O)NC2CCN(Cc3cccc(OC)c3)C2)cc1 (some centres undefined)	25.1 nM	2510 nM	316 nM	100	10			
CC(C)OC(=O)c1ccc(NC(=O)N[C@@H](Cc2ccc(O)cc2)C(=O)N[C@H]2CCC[N+]3(CCCCCC3)C2)cc1						3.16 nM	79.4 nM	5.01 nM
CCOC(=O)c1ccc(NC(=O)N[C@@H](Cc2ccc(-c3ccccc3)cc2)C(=O)N[C@H]2CC[N+](C)(Cc3ccc4c(c3)OCO4)C2)cc1 (some centres undefined)	15.8 nM	12.6 nM	5.01 nM					
CCOC(=O)c1ccc(NC(=O)N[C@@H](Cc2ccc(O)cc2)C(=O)NC2CCN(Cc3ccc(OC)cc3)C2)cc1 (some centres undefined)	20 nM	501 nM	251 nM	100	10			
CC(C)OC(=O)c1ccc(NC(=O)N[C@@H](Cc2ccc(O)cc2)C(=O)N[C@H]2CCC[N+](CC3CC3)(CC3CC3)C2)cc1						0.631 nM	39.8 nM	5.01 nM
O=C(Nc1ccc(C(=O)OCC2CC2)cc1)N[C@@H](Cc1ccc(O)cc1)C(=O)NC1CCN(Cc2ccc(O)cc2)C1 (some centres undefined)	100 nM	1000 nM	398 nM					
CCOC(=O)c1ccc(NC(=O)N[C@@H](Cc2ccc(O)cc2)C(=O)NC2CCN(Cc3cccc(O)c3)C2)cc1 (some centres undefined)	20 nM	794 nM	158 nM	100	10			
CC(C)NC(=O)c1ccc(NC(=O)N[C@@H](Cc2ccc(O)cc2)C(=O)N[C@H]2CCC[N+](C)(Cc3ccc(O)cc3)C2)cc1 (some centres undefined)						0.631 nM	79.4 nM	3.98 nM
CCOC(=O)c1ccc(NC(=O)N[C@@H](Cc2ccc(Br)cc2)C(=O)N[C@H]2CC[N+](C)(Cc3ccc4c(c3)OCO4)C2)cc1 (some centres undefined)	12.6 nM	31.6 nM	3.98 nM					
CCOC(=O)c1ccc(NC(=O)N[C@@H](Cc2cccc(Cl)c2)C(=O)N[C@H]2CC[N+](C)(Cc3ccc4c(c3)OCO4)C2)cc1 (some centres undefined)	7.94 nM	25.1 nM	3.98 nM					
CCOC(=O)c1ccc(NC(=O)N[C@@H](Cc2ccc(N)cc2)C(=O)N[C@H]2CC[N+](C)(Cc3ccc4c(c3)OCO4)C2)cc1 (some centres undefined)	15.8 nM	1260 nM	15.8 nM					
CCN(CC)C(=O)c1ccc(NC(=O)N[C@@H](Cc2ccc(O)cc2)C(=O)NC2CCN(Cc3ccc(C#N)cc3)C2)cc1 (some centres undefined)	398 nM	> 3160 nM	> 3160 nM					
N#Cc1ccc(CN2CCC(NC(=O)[C@H](Cc3ccc(O)cc3)NC(=O)Nc3ccc(C(=O)Nc4ccccc4)cc3)C2)cc1 (some centres undefined)	501 nM	> 3160 nM	> 3160 nM					
Cc1noc(-c2ccc(NC(=O)N[C@@H](Cc3ccc(O)cc3)C(=O)N[C@H]3CCC[N+](C)(Cc4ccc(O)cc4)C3)cc2)n1 (some centres undefined)						2 nM	158 nM	6.31 nM
CNC(=O)c1ccc(NC(=O)N[C@@H](Cc2ccc(O)cc2)C(=O)NC2CCN(Cc3ccc(C#N)cc3)C2)cc1 (some centres undefined)	2510 nM	> 3160 nM	> 3160 nM					

Structure (SMILES)	IC50 [1]	IC50 [2]	IC50 [3]	Selectivity ratio [4]	Selectivity ratio [5]	Kb [1]	Kb [2]	Kb [3]
CCCNC(=O)c1ccc(NC(=O)N[C@@H](Cc2ccc(O)cc2)C(=O)NC2CCN(Cc3ccc(C#N)cc3)C2)cc1 (some centres undefined)	501 nM	> 3160 nM	> 3160 nM					
CCOC(=O)c1ccc(NC(=O)N[C@@H](Cc2ccc(O)cc2)C(=O)N[C@H]2CCC[N+](C)(Cc3ccc(F)cc3)C2)cc1 (some centres undefined)	2 nM	100 nM	2.51 nM					
CCOC(=O)c1ccc(NC(=O)N[C@@H](Cc2ccc(C(=O)c3ccccc3)cc2)C(=O)N[C@H]2CC[N+](C)(Cc3ccc4c(c3)OCO4)C2)cc1 (some centres undefined)	12.6 nM	10 nM	2.51 nM					
CCOC(=O)c1ccc(NC(=O)N[C@@H](Cc2ccc(OC)cc2)C(=O)N[C@H]2CC[N+](C)(Cc3ccc4c(c3)OCO4)C2)cc1 (some centres undefined)	39.8 nM	79.4 nM	5.01 nM					
CCOC(=O)c1ccc(NC(=O)N[C@@H](Cc2ccc(C#N)cc2)C(=O)N[C@H]2CC[N+](C)(Cc3ccc4c(c3)OCO4)C2)cc1 (some centres undefined)	50.1 nM	251 nM	12.6 nM					
CCOC(=O)c1ccc(NC(=O)N[C@@H](Cc2ccc(Cl)cc2)C(=O)N[C@H]2CC[N+](C)(Cc3ccc4c(c3)OCO4)C2)cc1 (some centres undefined)	10 nM	39.8 nM	6.31 nM					
CCOC(=O)c1ccc(NC(=O)N[C@@H](Cc2ccc(C)cc2)C(=O)N[C@H]2CC[N+](C)(Cc3ccc4c(c3)OCO4)C2)cc1 (some centres undefined)	15.8 nM	100 nM	10 nM					
CCOC(=O)c1ccc(NC(=O)N[C@@H](Cc2ccc(OC)c(OC)c2)C(=O)N[C@H]2CC[N+](C)(Cc3ccc4c(c3)OCO4)C2)cc1 (some centres undefined)	1260 nM	631 nM	50.1 nM					
CCOC(=O)c1ccc(NC(=O)N[C@@H](Cc2ccc(F)cc2)C(=O)N[C@H]2CC[N+](C)(Cc3ccc4c(c3)OCO4)C2)cc1 (some centres undefined)	15.8 nM	100 nM	10 nM					
CCCOC(=O)c1ccc(NC(=O)N[C@@H](Cc2ccc(O)cc2)C(=O)NC2CCN(Cc3ccc(O)cc3)C2)cc1 (some centres undefined)	10 nM	1000 nM	100 nM					
CC(C)COC(=O)c1ccc(NC(=O)N[C@@H](Cc2ccc(O)cc2)C(=O)NC2CCN(Cc3ccc(O)cc3)C2)cc1 (some centres undefined)	251 nM	> 3160 nM	1260 nM					
CCOC(=O)c1ccc(NC(=O)N[C@@H](Cc2ccc(O)cc2)C(=O)N[C@H]2CC[N+](C)(Cc3ccc4c(c3)OCO4)C2)cc1 (some centres undefined)	6.31 nM	158 nM	39.8 nM					
CCNC(=O)c1ccc(NC(=O)N[C@@H](Cc2ccc(O)cc2)C(=O)NC2CCN(Cc3ccc(C#N)cc3)C2)cc1 (some centres undefined)	316 nM	> 3160 nM	> 3160 nM					
CCOC(=O)c1ccc(NC(=O)N[C@@H](Cc2ccc(C(F)(F)F)cc2)C(=O)N[C@H]2CC[N+](C)(Cc3ccc4c(c3)OCO4)C2)cc1 (some centres undefined)	31.6 nM	50.1 nM	10 nM					
CCOC(=O)c1ccc(NC(=O)N[C@@H](Cc2ccc(O)cc2)C(=O)NC2CCN(Cc3ccc(O)cc3)C2)cc1 (mixture of isomers)				100	10			
N#Cc1ccc(CN2CCC(NC(=O)[C@H](Cc3ccc(O)cc3)NC(=O)Nc3ccc(C(=O)NCc4ccccc4)cc3)C2)cc1 (some centres undefined)	1580 nM	> 3160 nM	> 3160 nM					
CC(C)NC(=O)c1ccc(NC(=O)N[C@@H](Cc2ccc(O)cc2)C(=O)NC2CCN(Cc3ccc(C#N)cc3)C2)cc1 (some centres undefined)	100 nM	> 3160 nM	1580 nM					
N#Cc1ccc(CN2CCC(NC(=O)[C@H](Cc3ccc(O)cc3)NC(=O)Nc3ccc(C(=O)N4CCOCC4)cc3)C2)cc1 (some centres undefined)	1000 nM	> 3160 nM	> 3160 nM					
CCOC(=O)c1ccc(NC(=O)N[C@@H](Cc2ccc(O)cc2)C(=O)N[C@H]2CC[N+](C)(Cc3ccc(O)cc3)C2)cc1 (some centres undefined)	6.31 nM	251 nM	39.8 nM					
COC(=O)c1ccc(NC(=O)N[C@@H](Cc2ccc(O)cc2)C(=O)NC2CCN(Cc3ccc(O)cc3)C2)cc1 (some centres undefined)	25.1 nM	1000 nM	316 nM					
